Experimental data as given in the supplement of paper PMC10307832.

Experiments:
Assay in all cases: relative viability (nuclei count vs DMSO), 5 days (fraction); higher = more cells survive
[1] = compound: C1/C(=C\C2=CC=CS2)/C(=O)/C(=C/C3=CC=CS3)/C1 + CS(=O)(=O)CCNCc1ccc(-c2ccc3ncnc(Nc4ccc(OCc5cccc(F)c5)c(Cl)c4)c3c2)o1 [Lapatinib] (partner 2 µM)
In short: (§1)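 After 5 days of treatment, lung cancer cells in 1536-well plates were fixed and stained in a single step (final 0.05% Triton X-100, 1% formaldehyde, 1 ug/ml Hoechst) and their nuclei counted on 4× images. Treatment had been applied by pin tool the day after seeding as one drug alone or as a fixed anchor-drug dose with five library-drug doses (not always all listed) in √10 steps. Relative viability is the nuclei count of treated wells divided by that of vehicle wells, and values are medians of duplicate plates.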

[2] = compound: C1=CC(=CC=C1C2=CC(=C(S2)NC(=O)N)C(=O)N)F [TPCA-1] + O=C(c1cc(Cc2n[nH]c(=O)c3ccccc23)ccc1F)N1CCN(C(=O)C2CC2)CC1 [Olaparib] (partner 8 µM)
In short: as §1

[3] = compound: C[C@]12O[C@H](C[C@]1(O)CO)n1c3ccccc3c3c4c(c5c6ccccc6n2c5c31)CNC4=O [Lestaurtinib] + Cc1nc(Nc2ncc(C(=O)Nc3c(C)cccc3Cl)s2)cc(N2CCN(CCO)CC2)n1 [Dasatinib] (partner 0.075 µM)
In short: as §1

[4] = compound: C[C@]12O[C@H](C[C@]1(O)CO)n1c3ccccc3c3c4c(c5c6ccccc6n2c5c31)CNC4=O [Lestaurtinib] + CCNC(=O)c1noc(-c2cc(C(C)C)c(O)cc2O)c1-c1ccc(CN2CCOCC2)cc1 [Luminespib] (partner 0.01 µM)
In short: as §1

## UMC-11
[1]; first compound 0.2 µM
  relative viability: 0.88
[1]; first compound 0.6325 µM
  relative viability: 0.98
[1]; first compound 2 µM
  relative viability: 1.19
[1]; first compound 6.325 µM
  relative viability: 0.628
[1]; first compound 20 µM
  relative viability: 1.1
[2]; first compound 0.04 µM
  relative viability: 0.365
[2]; first compound 0.1265 µM
  relative viability: 0.455
[2]; first compound 0.4 µM
  relative viability: 0.405
[2]; first compound 1.265 µM
  relative viability: 0.381
[2]; first compound 4 µM
  relative viability: 0.42
[3]; first compound 0.005 µM
  relative viability: 0.543
[3]; first compound 0.01581 µM
  relative viability: 0.501
[3]; first compound 0.05 µM
  relative viability: 0.247
[3]; first compound 0.1581 µM
  relative viability: 0.231
[3]; first compound 0.5 µM
  relative viability: 0.146
[4]; first compound 0.005 µM
  relative viability: 0.936
[4]; first compound 0.01581 µM
  relative viability: 0.992
[4]; first compound 0.05 µM
  relative viability: 0.675
[4]; first compound 0.1581 µM
  relative viability: 0.286
[4]; first compound 0.5 µM
  relative viability: 0.164
